From patent US8536210B2, “Compounds for inhibiting semicarbazide-sensitive amine oxidase (SSAO)/vascular adhesion protein-1 (VAP-1) and uses thereof for treatment and prevention of diseases” (Semmelweis Egyetem, priority 2008, dated 2013)
Blank lines part the entries; values can stand above or below the compound they belong to.

Experiments:
[1] = molecular target: human recombinant VAP-1 (SSAO/VAP-1 enzyme) (Homo sapiens (Human), UniProt Q16853); test: In vitro inhibition of SSAO activity on human recombinant VAP-1 (colorimetric, benzylamine substrate); assay type: biochemical; settings: for IC50: recombinant SSAO/VAP-1 in CHO cell homogenate, 1 mM benzyl amine
Chain of human recombinant VAP-1 (SSAO/VAP-1 enzyme) (Q16853 whole entry): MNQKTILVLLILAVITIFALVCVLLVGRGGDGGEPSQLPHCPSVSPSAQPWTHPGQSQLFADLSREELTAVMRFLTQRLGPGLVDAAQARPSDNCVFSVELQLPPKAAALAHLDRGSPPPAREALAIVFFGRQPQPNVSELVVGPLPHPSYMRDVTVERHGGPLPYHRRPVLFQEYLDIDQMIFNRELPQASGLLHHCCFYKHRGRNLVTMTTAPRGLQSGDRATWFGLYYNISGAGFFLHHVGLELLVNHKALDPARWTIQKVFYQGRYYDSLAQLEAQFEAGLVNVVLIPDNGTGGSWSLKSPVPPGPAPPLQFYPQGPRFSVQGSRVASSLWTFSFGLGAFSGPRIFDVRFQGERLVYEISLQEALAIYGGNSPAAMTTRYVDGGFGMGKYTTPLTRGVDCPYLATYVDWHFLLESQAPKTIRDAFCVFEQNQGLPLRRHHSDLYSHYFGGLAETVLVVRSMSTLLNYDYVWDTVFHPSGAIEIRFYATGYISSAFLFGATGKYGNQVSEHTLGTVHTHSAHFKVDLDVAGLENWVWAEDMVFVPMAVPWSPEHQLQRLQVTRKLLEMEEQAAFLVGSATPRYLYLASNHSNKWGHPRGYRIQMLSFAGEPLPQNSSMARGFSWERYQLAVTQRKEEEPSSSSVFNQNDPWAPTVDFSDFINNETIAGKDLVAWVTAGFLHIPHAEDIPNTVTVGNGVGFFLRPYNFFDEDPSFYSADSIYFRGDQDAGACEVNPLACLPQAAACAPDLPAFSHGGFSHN
Procedure: For determining the SSAO/VAP-1 activity, the colorimetric method described by Holt, A (Holt, A., Anal. Biochem. 244, 384, 1997) for monoamine oxidase and analogous enzymes was used. Recombinant SSAO/VAP-1 enzyme was expressed in Chinese Hamster Ovary cells (CHO). These cells and cell cultures have been described earlier (Smith, D. J. et al, J. Exp. Med. 188, 17, 1998). The cell homogenate was prepared as follows: a suspension was made of approximately 3.6×10^8 cells in 25 ml lysation buffer (150 mM NaCl, 10 mM Tris-base pH 7.2, 1.5 mM MgCl2, 1% NP40), that was stirred for 1 night and incubated at 4° C. The homogenate was centrifugated (18000 g). The supernatant was used directly afterwards for the measurement. SSAO/VAP-1 activity measurement was carried out as follows on 96 precisely microtitrated plates, a given amount of inhibitor was added to each. The amount of the inhibitors varied among the measurements, the final concentration being between 1 nM and 50 μM in general, in 20 μl aqueous total volume for all cases. Then 0.2 M potassium phosphate buffer (pH=7.6) was added, to obtain a total volume of 200 μl 50 μl freshly prepared chromogen solution was given, which contains 1 mM of vanillic acid, 500 μM 4-aminoantipyrin, 8 U/ml horse radish peroxidase, and such an amount of SSAO/VAP-1 containing CHO cell homogenate that causes a 0.6 A-490 per h change, the latter being in the linear coherence scope of the method. The plates were incubated for 30 min at 37° C. and the background absorbance was measured at 490 nm by a Wallac Victor II apparatus. For starting the enzyme reaction, 20 μl 10 mM benzyl amine solution was added, the final concentration of which was therefore 1 mM. The plates were reincubated at 37° C. for 1 h. The increase in the absorbance showing the SSAO/VAP-1 activity was measured at 490 nm. The inhibition was calculated in the % of the control absorbance corrected with the background absorbance, IC50 values were calculated using GraphPad Prism.

[2] = test system: carrageenan-induced rat paw edema; test: Inhibition of carrageenan-induced rat paw edema; assay type: in vivo
From the text: Carrageenan-induced rat paw edema has been extensively used in the evaluation of anti-inflammatory effects of various agents and it is useful in assessing the efficacy of compounds to alleviate acute inflammation (Whiteley P E, Dalrymple S A (1998) Models of inflammation: carrageenan-induced paw edema in the rat, in Current Protocols in Pharmacology (Enna S J, Williams M, Ferkany J W, Kenakin T, Porsolt R E, Sullivan J P eds) pp 5.4.1-5.4.3, John Wiley & Sons, New York.). Edema in the paws was induced by injecting 0.1 ml of a 1% solution of carrageenan intraplantary. […] […] Inhibitory effects are expressed in % values.

[3] = test system: acetic acid induced writhing syndrome; test: Inhibition of acetic acid induced writhing on mice; assay type: in vivo; settings: 20 minutes prior to acetic acid
Procedure: The method described by Van der Wende (Van der Vende C, Margolin S, Fed. Proc., 15, 494, 1956) with the modifications of Witkin et al. (Witkin L B et al, J. Pharm. Exp. Ther., 133, 400, 1961) was applied. 0.2 ml of a 0.6% acetic acid solution was injected intraperitoneally, causing a typical writhing syndrome in 90% of the animals. Compounds of the invention were administered subcutaneously, 20 minutes prior to acetic acid exposure. Antianalgetic effect was determined by the formula, which is shown below, and is expressed in % values. (number of writhings in treatment group (5′)/number of writhings in control group (5′))×100

inhibition at 50 µM ([1]; at 50 μM): 32%
SMILES: ON=Cc1cccc2cccc(N3CCCC3)c12 [Compound 5, 8-Pyrrolidino-1-naphthaldehyde oxime]

IC50 [1]: 4.3 µM
SMILES: ON=Cc1c(O)ccc2c1OCO2 [Compound 6, 5-Hydroxy-1,3-benzodioxole-4-carbaldehyde oxime]

IC50 [1]: 95 µM
SMILES: C=CCOc1ccc2c(c1C=NO)OCO2 [Compound 8, 5-(Allyloxy)-1,3-benzodioxole-4-carbaldehyde oxime]

inhibition at 500 µM [1]: 35%
SMILES: CC1Oc2ccc(Br)c(C=NO)c2O1 (centres unmarked) [Compound 10, 5-Bromo-2-methyl-1,3-benzodioxole-4-carbaldehyde oxime]

IC50 [1]: 30 µM
SMILES: COc1c(C=NO)c(=O)n(C)c(=O)n1C [Compound 17, 6-Methoxy-1,3-dimethyl-2,4-dioxo-1,2,3,4-tetrahydropyrimidine-5-carbaldehyde oxime]

IC50 [1]: 48 µM
SMILES: CSc1c(C=NO)c(=O)n(C)c(=O)n1C [Compound 22, 1,3-Dimethyl-6-(methylthio)-2,4-dioxo-1,2,3,4-tetrahydropyrimidine-5-carbaldehyde oxime]
Inhibition of rat paw edema in % ([2]; 7.5 mg/kg s.c., 60 min): 15 ± 2% | Inhibition of rat paw edema in % ([2]; 7.5 mg/kg s.c., 120 min): 55 ± 5 % | Inhibition of rat paw edema in % ([2]; 7.5 mg/kg s.c., 180 min): 60 ± 5 % | Inhibition of rat paw edema in % ([2]; 15 mg/kg s.c., 60 min): 60 ± 6 % | Inhibition of rat paw edema in % ([2]; 15 mg/kg s.c., 120 min): 63 ± 7 % | Inhibition of rat paw edema in % ([2]; 15 mg/kg s.c., 180 min): 65 ± 7 % | Inhibition of rat paw edema in % ([2]; 30 mg/kg p.o., 60 min): 0% | Inhibition of rat paw edema in % ([2]; 30 mg/kg p.o., 120 min): 21 ± 2% | Inhibition of rat paw edema in % ([2]; 30 mg/kg p.o., 180 min): 21 ± 2% | Inhibition of rat paw edema in % ([2]; 30 mg/kg s.c., 60 min): 58 ± 7 % | Inhibition of rat paw edema in % ([2]; 30 mg/kg s.c., 120 min): 54 ± 5 % | Inhibition of rat paw edema in % ([2]; 30 mg/kg s.c., 180 min): 72 ± 8 % | Inhibition of writhing syndrome in % ([3]; 5 mg/kg s.c.): 70 ± 5 % | Inhibition of writhing syndrome in % ([3]; 15 mg/kg s.c.): 100%

IC50 [1]: 106 µM
SMILES: Cn1c(Sc2ccccc2)c(C=NO)c(=O)n(C)c1=O [Compound 24, 1,3-Dimethyl-2,4-dioxo-6-(phenylthio)-1,2,3,4-tetrahydropyrimidine-5-carbaldehyde oxime]

IC50 [1]: 113 µM
SMILES: CCSc1c(C=NOC)c(=O)n(C)c(=O)n1C [Compound 25, 6-(Ethylthio)-1,3-dimethyl-2,4-dioxo-1,2,3,4-tetrahydropyrimidine-5-carbaldehyde O-methyloxime]

inhibition at 500 µM [1]: 55%
SMILES: Cn1nc2c(c(C=NO)c1=O)N1CCCC1CO2 (centres unmarked) [Compound 35, 3-Methyl-2-oxo-2,3,6a,7,8,9-hexahydro-6H-pyridazino[3,4-b]pyrrolo[1,2-d][1,4]oxazine-1-carbaldehyde oxime]

inhibition at 500 µM [1]: 31%
SMILES: Cn1ncc(N2CCCC2)c(-c2ccccc2C=NO)c1=O [Compound 38, 2-(2-Methyl-3-oxo-5-pyrrolidino-2,3-dihydropyridazin-4-yl)benzaldehyde oxime]

Second part, the compound before the results:

SMILES: COc1cccc(C=NO)c1C [Compound 1, 3-Methoxy-2-methylbenzaldehyde oxime]
melting point: 110 °C | IC50 [1]: 102 µM

SMILES: CCOc1ccc2c(c1C=NO)OCO2 [Compound 7, 5-Ethoxy-1,3-benzodioxole-4-carbaldehyde oxime]
IC50 [1]: 40 µM

SMILES: ON=Cc1c(Br)ccc2c1OCO2 [Compound 9, 5-Bromo-1,3-benzodioxole-4-carbaldehyde oxime]
IC50 [1]: 14.9 µM | Inhibition of rat paw edema in % ([2]; 7.5 mg/kg s.c., 60 min): 63 ± 7 % | Inhibition of rat paw edema in % ([2]; 7.5 mg/kg s.c., 120 min): 62 ± 6 % | Inhibition of rat paw edema in % ([2]; 7.5 mg/kg s.c., 180 min): 66 ± 5 % | Inhibition of rat paw edema in % ([2]; 15 mg/kg s.c., 60 min): 53 ± 5 % | Inhibition of rat paw edema in % ([2]; 15 mg/kg s.c., 120 min): 52 ± 3 % | Inhibition of rat paw edema in % ([2]; 15 mg/kg s.c., 180 min): 66 ± 7 % | Inhibition of rat paw edema in % ([2]; 30 mg/kg p.o., 60 min): 0% | Inhibition of rat paw edema in % ([2]; 30 mg/kg p.o., 120 min): 5 ± 1% | Inhibition of rat paw edema in % ([2]; 30 mg/kg p.o., 180 min): 0% | Inhibition of rat paw edema in % ([2]; 30 mg/kg s.c., 60 min): 54 ± 6 % | Inhibition of rat paw edema in % ([2]; 30 mg/kg s.c., 120 min): 40 ± 5 % | Inhibition of rat paw edema in % ([2]; 30 mg/kg s.c., 180 min): 50 ± 5 % | Inhibition of writhing syndrome in % ([3]; 15 mg/kg s.c.): 84 ± 8 % | Inhibition of writhing syndrome in % ([3]; 30 mg/kg s.c.): 80 ± 7 %

SMILES: ON=Cc1ccccc1-c1ccc2c(c1C=NO)OCO2 [Compound 12, 5-{2-[(hydroxyimino)methyl]phenyl}-1,3-benzodioxole-4-carbaldehyde oxime]
IC50 [1]: 180 µM

SMILES: CCOc1c(C=NO)c(=O)n(C)c(=O)n1C [Compound 16, 6-Ethoxy-1,3-dimethyl-2,4-dioxo-1,2,3,4-tetrahydropyrimidine-5-carbaldehyde oxime]
Inhibition of rat paw edema in % ([2]; 30 mg/kg s.c., 60 min): 8 ± 1% | Inhibition of rat paw edema in % ([2]; 30 mg/kg s.c., 120 min): 19 ± 2% | Inhibition of rat paw edema in % ([2]; 30 mg/kg s.c., 180 min): 31 ± 4% | Inhibition of writhing syndrome in % ([3]; 15 mg/kg s.c.): 86 ± 7 % | Inhibition of writhing syndrome in % ([3]; 30 mg/kg s.c.): 96 ± 6 %

SMILES: CCCOc1c(C=NO)c(=O)n(C)c(=O)n1C [Compound 18, 1,3-Dimethyl-2,4-dioxo-6-propoxy-1,2,3,4-tetrahydropyrimidine-5-carbaldehyde oxime]
IC50 [1]: 18 µM

SMILES: CCOc1c(C=NOC)c(=O)n(C)c(=O)n1C [Compound 19, 6-Ethoxy-1,3-dimethyl-2,4-dioxo-1,2,3,4-tetrahydropyrimidine-5-carbaldehyde O-methyloxime]
IC50 [1]: 29 µM

SMILES: CCCSc1c(C=NO)c(=O)n(C)c(=O)n1C [Compound 21, 1,3-Dimethyl-2,4-dioxo-6-(propylthio)-1,2,3,4-tetrahydropyrimidine-5-carbaldehyde oxime]
IC50 [1]: 58 µM

SMILES: CCSc1c(C=NO)c(=O)n(C)c(=O)n1C [Compound 23, 6-(Ethylthio)-1,3-dimethyl-2,4-dioxo-1,2,3,4-tetrahydropyrimidine-5-carbaldehyde oxime]
IC50 [1]: 111 µM

SMILES: C=CCN(C)c1c(C=NO)c(=O)n(C)c(=O)n1C [Compound 27, 6-[Allyl(methyl)amino]-1,3-dimethyl-2,4-dioxo-1,2,3,4-tetrahydropyrimidine-5-carbaldehyde oxime]
IC50 [1]: 41 µM

SMILES: Cn1ncc(N2CCCCC2)c(/C=N/O)c1=O [Compound 29, E-2-Methyl-3-oxo-5-piperidino-2,3-dihydropyridazine-4-carbaldehyde oxime]
IC50 [1]: 240 µM

SMILES: COc1ccc(Cn2ncc(N3CCOCC3)c(/C=N/O)c2=O)cc1 [Compound 32, E-2-(4-Methoxybenzyl)-5-morpholino-3-oxo-2,3-dihydropyridazine-4-carbaldehyde oxime]
IC50 [1]: 263 µM

SMILES: ON=CCCc1nc(-c2ccccc2)c(-c2ccccc2)o1 [Compound 40, 3-(4,5-Diphenyl-1,3-oxazol-2-yl)propanal oxime]
IC50 [1]: 3.5 µM

SMILES: COc1ccc2c(c1)c(CC(=O)O)c(C)n2C(=O)c1ccc(Cl)cc1 [Indomethacin, reference compound]
Inhibition of rat paw edema in % ([2]; 2.5 mg/kg p.o., 60 min): 32 ± 2 % | Inhibition of rat paw edema in % ([2]; 2.5 mg/kg p.o., 120 min): 51 ± 4 % | Inhibition of rat paw edema in % ([2]; 2.5 mg/kg p.o., 180 min): 53 ± 5 %
